# Experimental data from patent US6617114B1, “Identification of drug complementary combinatorial libraries” (priority 1996, dated 2003).
# Where a SMILES comes first, the peptide text is derived from it. Bridges are numbered along the chain shown (N, C = ends).
# Assays:
# E. coli ProRS [1] = biological target: T1, E. coli ProRS (Escherichia coli, UniProt P16659); assay: ELSA of ProRS surrogate ligand; format: binding; conditions: tested on ProRS, GST-src SH3, GST, GST-UL44, TyrRS, GST-MDM2
# Description: (§1) Target protein was immobilized in microtiter wells by incubating 0.5-2.0 μg per well in 100 μl of 0.1 M NaHCO3 overnight at 4° C. […] During the 1 hour blocking period, the SA-AP:surrogate ligand conjugate was prepared by mixing 2 μg SA-AP and 50 pmol biotinylated surrogate ligand for each well of target protein. (This corresponds to a 1:1 ratio of biotinylated peptide to biotin binding sites.) The mixture was incubated at room temperature for 15-20 minutes and then diluted with Tris-buffered saline-TWEEN-20 detergent (TBST) 10 mM Tris-HCl, pH 8.0, 150 mM NaCl, 0.05% TWEEN-20 detergent such that there was 100 μl of conjugate per well. For lower concentrations of surrogate ligand, an unrelated biotinylated peptide was titrated in to keep the total amount of biotinylated peptide at 50 pmol/well and total SA-AP at 2 μg/well.
# (§2) After blocking, the wells were washed once with 200 μl TBST. The surrogate ligand:SA-AP conjugate was then added (100 μl/well) and incubated at room temperature for 2 hours. The wells were then washed 5 times with 300 μl TBST using a BioRad 1575 Immunowash plate washer. The assay was developed by adding 100 μl of pNPP and incubating at room temperature for 5-10 minutes. The absorbance was read at 405 nm.
# (§3) A peptide corresponding to the most often isolated phage was synthesized and used in an ELSA as described in example 1. […]
# E. coli ProRS [2] = biological target: T1, E. coli ProRS; assay: ProRS charging assay; format: biochemical
# Description: One question that could be answered with peptides designed from these phage is whether or not they are directed to random regions on the target protein or if they target active sites and regions of other biological interactions. The peptides used in the above ELSAs were added to a charging assay to assess its affects on enzymatic activity of the target.
# TyrRS = TyrRS (Haemophilus influenzae, UniProt P43836); assay: ELSA of TyrRS surrogate ligand; format: binding; conditions: tested on TyrRS, GST-src SH3, GST, GST-UL44, GST-MDM2, ProRS
# Description: as §1
# as §2, with “nm. […]” for “nm.”
# The ability of the compound to inhibit the binding of the TyrRS1B peptide to TyrRS was determined. […]
# E. coli ProRS [3] = biological target: T2, E. coli ProRS (Escherichia coli, UniProt P16659); assay: ELSA of ProRS surrogate ligand; format: binding; conditions: self-competition
# T2 sequence (P16659 whole entry, looked up): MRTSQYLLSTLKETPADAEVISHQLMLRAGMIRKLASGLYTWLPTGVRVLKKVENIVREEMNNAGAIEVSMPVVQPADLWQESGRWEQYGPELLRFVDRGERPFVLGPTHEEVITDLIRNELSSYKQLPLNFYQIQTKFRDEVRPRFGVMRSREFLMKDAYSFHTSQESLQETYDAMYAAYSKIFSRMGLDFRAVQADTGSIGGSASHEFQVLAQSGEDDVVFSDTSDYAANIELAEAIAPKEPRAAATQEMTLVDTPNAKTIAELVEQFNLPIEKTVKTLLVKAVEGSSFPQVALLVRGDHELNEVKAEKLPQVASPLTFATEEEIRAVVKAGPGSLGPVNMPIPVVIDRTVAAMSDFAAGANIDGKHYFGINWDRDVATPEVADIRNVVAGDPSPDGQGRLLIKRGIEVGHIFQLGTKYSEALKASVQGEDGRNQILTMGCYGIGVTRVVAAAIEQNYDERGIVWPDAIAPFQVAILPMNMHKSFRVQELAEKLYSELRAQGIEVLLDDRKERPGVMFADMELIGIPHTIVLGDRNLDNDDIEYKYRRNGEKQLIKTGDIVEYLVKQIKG
# Description: as §1, §2, §3
# TyrRS, sequence (P43836 whole entry): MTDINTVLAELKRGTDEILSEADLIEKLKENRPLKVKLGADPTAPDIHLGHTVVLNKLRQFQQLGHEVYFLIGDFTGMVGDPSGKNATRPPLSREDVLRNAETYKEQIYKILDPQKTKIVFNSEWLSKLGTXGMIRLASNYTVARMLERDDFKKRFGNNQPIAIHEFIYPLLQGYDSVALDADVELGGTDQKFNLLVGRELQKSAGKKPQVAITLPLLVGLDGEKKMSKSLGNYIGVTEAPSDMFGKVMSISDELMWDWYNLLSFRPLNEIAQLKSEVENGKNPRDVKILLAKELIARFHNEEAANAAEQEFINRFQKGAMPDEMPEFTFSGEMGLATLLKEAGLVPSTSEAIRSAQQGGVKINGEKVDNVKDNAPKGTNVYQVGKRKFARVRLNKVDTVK
compound,measurement,setting,value
"CC[C@H](C)[C@@H]1NC(=O)[C@H](C)NC(=O)[C@@H](NC(=O)[C@@H](NC(=O)[C@H](CCCNC(=N)N)NC(=O)[C@@H](N)CO)C(C)C)CSSC[C@@H](C(=O)N[C@@H](CO)C(=O)N[C@@H](CCCNC(=N)N)C(=O)O)NC(=O)CNC(=O)[C@H](CC(=O)O)NC(=O)[C@H](CC(C)C)NC(=O)[C@H](CC(=O)O)NC(=O)[C@@H]2CCCN2C(=O)[C@H](Cc2c[nH]c3ccccc23)NC1=O [ProRS BioKey, S R V C A I W P D L D G C S R] (H-SRVCAIWPDLDGCSR-OH; disulfide 4-13; N-terminus and C-terminus assumed)",specificity of binding of biotinylated peptide,E. coli ProRS [1],specific for E. coli ProRS
same,time of preincubation with the peptide for 50% inhibition,E. coli ProRS [2]; 530 μM peptide,about 1.5 hours
same,mode of inhibition,E. coli ProRS [2]; charging assay,competitive in respect to proline
L Y S W P D E Q Y E R P (LYSWPDEQYERP) [Peptide 1],specificity of binding of biotinylated peptide,TyrRS,binds to TyrRS specifically
S R V C A I W P D L D G C S R (SRVCAIWPDLDGCSR) [non-biotinylated ProRS peptide],disruption of biotinylated ProRS peptide binding,E. coli ProRS [3],disrupted in a dose dependent fashion
